Laboratory results from patent US7341985B2, “2-Hydroxy-3-alkoxypropyl sulfides, sulfones, and sulfoxides: new surface active agents” (Air Products and Chemicals, Inc., priority 2004, dated 2008).

Legend:
Type in all cases: physicochemical
[1] = Equilibrium surface tension (Kruss K-12 tensiometer, Wilhelmy plate); settings: 25±1° C., average of 10 measurements over 10 minutes
Protocol: Equilibrium surface tensions were determined for the compounds prepared in Examples 1-6, using a Kruss K-12 tensiometer with a platinum Wilhelmy plate, maintaining the temperature at 25±1° C. by means of a constant temperature circulating bath. The results, reported in Table 2, are averages of 10 measurements over a 10-minute period, and have a standard deviation of less than 0.01 dyne/cm.

[2] = Dynamic surface tension (Kruss BP-2 Bubble Pressure Tensiometer); settings: for Dynamic surface tension reduction of an aqueous solution (in words): summary of Table 4
Protocol: Dynamic surface tensions were determined for the compounds prepared in Examples 1-5, at 0.1 and 1.0 wt % levels, using a Kruss BP-2 Bubble Pressure Tensiometer.

Water solubility = assay: Water solubility
[3] = Ross-Miles foam test (foam height and stability); settings: 0.1 wt % solution
Protocol: Foam height and stability (time to reach zero foam) were measured by the Ross-Miles foam test, using 0.1 wt % solutions of the surfactants.

[4] = 0.1 wt %, 1 b/s (bubbles/second)

Equilibrium Surface Tension ([1]; 0.1 wt % in water) | Equilibrium Surface Tension ([1]; 1.0 wt % in water) | Dynamic surface tension [2, 4] | Dynamic surface tension ([2]; 0.1 wt %, 5 b/s) | Dynamic surface tension ([2]; 0.1 wt %, 20 b/s) | Dynamic surface tension ([2]; 1.0 wt %, 1 b/s) | Dynamic surface tension ([2]; 1.0 wt %, 5 b/s) | Dynamic surface tension ([2]; 1.0 wt %, 20 b/s) | Dynamic surface tension reduction of an aqueous solution (in words) [2] | Water Solubility (Water solubility) | Initial Foam Height [3] | Time to 0 foam [3] | Final Foam Height at 300 Sec [3] | SMILES
30.7 dynes/cm | 29.3 dynes/cm | 35 dynes/cm | 39 dynes/cm | 45 dynes/cm | 30 dynes/cm | 30 dynes/cm | 32 dynes/cm | strong | <0.1 wt % | 0.6 cm | 6 s | 0 cm | CCCCC(CC)COCC(O)CSCCO (stereo not drawn) [MEEHGE, 2-hydroxyethyl-2′-hydroxy-3′-(2-ethylhexyloxy)propyl sulfide]
28.3 dynes/cm | 26.7 dynes/cm | 37 dynes/cm | 47 dynes/cm | 53 dynes/cm | 27 dynes/cm | 28 dynes/cm | 30 dynes/cm | strong | <0.1 wt % | 1.0 cm | 6 s | 0 cm | CCCCC(CC)COCC(O)CSCC(O)CO (stereo not drawn) [TGEHGE, 2,3-dihydroxypropyl-2′-hydroxy-3′-(2-ethylhexyloxy)propyl sulfide]

SMILES | Equilibrium Surface Tension ([1]; 0.1 wt % in water) | Equilibrium Surface Tension ([1]; 1.0 wt % in water) | Dynamic surface tension [2, 4] | Dynamic surface tension ([2]; 0.1 wt %, 5 b/s) | Dynamic surface tension ([2]; 0.1 wt %, 20 b/s) | Dynamic surface tension ([2]; 1.0 wt %, 1 b/s) | Dynamic surface tension ([2]; 1.0 wt %, 5 b/s) | Dynamic surface tension ([2]; 1.0 wt %, 20 b/s) | Dynamic surface tension reduction of an aqueous solution (in words) [2] | Water Solubility (Water solubility) | Initial Foam Height [3] | Time to 0 foam [3] | Final Foam Height at 300 Sec [3]
CCCCOCC(O)CSCCO (stereo not drawn) [MEBGE, 2-hydroxyethyl-2′-hydroxy-3′-butoxypropyl sulfide] | 37.1 dynes/cm | 32.6 dynes/cm | 59 dynes/cm | 61 dynes/cm | 65 dynes/cm | 43 dynes/cm | 44 dynes/cm | 44 dynes/cm | moderate | <0.1 wt % | 1.2 cm | 2 s | 0 cm
